Common to all, as to type: biochemical
For assay [1], the target named is T1, purified human 20S proteasome, T-L site (Homo sapiens, UniProt P25787+P60900).
T1 construct: purchased Boston Biochem or Life Sensors E-360 or ps020
Description: 20S proteasome small peptide assay, Boc-LRR-AMC trypsin-like probe. To be noted: for AC200 T-L site: concentration needed to double rate vs vehicle; for Max Fold T-L site: maximum fold rate increase vs vehicle. As for the experimental part: (§1) In vitro testing, 20S activation: The 20S proteasome activity of the compounds was assessed by utilizing the standard fluorogenic 7-amino-methylcoumarin (AMC) conjugated small peptide substrates that correspond to each of the catalytic sites in the 20S proteasome: chymotryptic-like site (Suc-LLVY-AMC), caspase-like site (Z-LLE-AMC), and trypsin-like site (Boc-LRR-AMC). When the small peptide substrate is degraded by the 20S proteasome, the AMC fluorophore is released and quantified to measure the rate of proteolytic cleavage. The 20S proteasome activity of the small molecules was evaluated at varying concentrations to determine the concentration at which the rate of proteolysis was doubled (i.e. the concentration needed to induce 200% activity) compared to the vehicle control (hereafter named as AC200). Concentrations ranging from 1.25 μM to 80 μM of each of compound were added to wells that contained 0.5 nM of purified human proteasome.
(§2) The overall enhancement of the rate of proteolysis of the 20S proteasome by a small molecule was first evaluated by adding a combination of all three peptide substrates to the treated sample. The combination of all three substrates represents a more accurate measurement of proteolytic activity of the proteasome because the catalytic sites housed in the β ring of the 20S proteasome communicate through allosteric interactions. For example, when a protein substrate encounters the chymotryptic-like site, a conformational change will occur activating the caspase-like site.^61 The individual contribution of each of the three catalytic sites was subsequently evaluated by adding only the corresponding peptide probes to gain insight into the contribution of each site on the overall enhanced proteolytic activity.
(§3) The fluorescent output, due to release of the AMC fluorophore, was then converted to the fold increase compared to a vehicle control sample, and the AC200 was calculated. […] (Table 1).
(§4) AC200 represents the concentration needed to double (e.g., 200%) the rate of substrate degradation compared to vehicle control. Max fold is the maximum fold rate increase compared to vehicle control.
(§5) 20S Proteasome Small Peptide Assay: Activity assays were carried out in a black flat/clear bottom 96 well plate with a […] volume. Concentrations of the potential activators, varying from 80 μM to 1.25 μM, were added to the well that contained 1 nM 20S proteasome purchased from either Boston Biochem (catalog number E-360) or Life Sensors (catalog number ps020), in a […] buffer at a pH of 7.8. This solution was left to incubate at 37° C. for 15 minutes. For the assay for the overall proteasome activity, 13.33 μM of each small peptide substrate is added. The 96 well plate is then placed into a plate reader (SpectraMax M5e spectrometer) and the plate reader will take a fluorescent reading every 5 minutes for an hour at 37° C. The enzymatic activity of the 20S proteasome is quantified using the fluorescent output at 380-460 nm, which is converted to max fold increase over the untreated sample. The activity of the individual catalytic assays is identical to the assay that assesses the overall activity of the 20S proteasome except only one small peptide substrate is added. To evaluate the activity of the CT-L and the Casp-L sites, 10 μM of the Suc-LLVY-AMC (Boston Biochem S-280) and Z-LLE-AMC (Boston Biochem S-230) were added, respectively. To evaluate the activity of the T-L site, 20 μM of the Boc-LRR-AMC (Boston Biochem S-300) is added.

In assay [2] the target is T2, purified human 20S proteasome, Casp-L site (Homo sapiens, UniProt P25787+P60900).
T2 construct: purchased Boston Biochem or Life Sensors E-360 or ps020
The assay can be described thus: 20S proteasome small peptide assay, Z-LLE-AMC caspase-like probe. As to conditions: for AC200 Casp-L site: concentration needed to double rate vs vehicle; for Max Fold Casp-L site: maximum fold rate increase vs vehicle. As for the experimental part: as §1, §2, §3, §4, §5

In assay [3] the target is T3, purified human 20S proteasome, CT-L site (Homo sapiens, UniProt P25787+P60900).
T3 construct: purchased Boston Biochem or Life Sensors E-360 or ps020
The assay can be described thus: 20S proteasome small peptide assay, Suc-LLVY-AMC chymotryptic-like probe. As to conditions: for AC200 CT-L site: concentration needed to double rate vs vehicle; for Max Fold CT-L site: maximum fold rate increase vs vehicle. The procedure: as §1, §2, §3, §4, §5

Assay [4] deals with T4, purified human 20S proteasome (Homo sapiens, UniProt P25787+P60900).
T4 construct: purchased Boston Biochem or Life Sensors E-360 or ps020
The assay can be described thus: 20S proteasome small peptide assay, combination of all three fluorogenic substrates (CT-L/Casp-L/T-L). Details: key to 20S proteasome activation, classed in words: compounds that exhibit a maximum fold enhancement of <2 fold (i.e. <200%) at a concentration >20 μM were considered inactive. To be noted: for AC200 CT-L/Casp-L/T-L: concentration needed to double (200%) the rate of substrate degradation vs vehicle; for AC200 CT-L/Casp-L/T-L / Max Fold CT-L/Casp-L/T-L: three probes combined; for Max Fold CT-L/Casp-L/T-L: maximum fold rate increase vs vehicle control; for 20S proteasome activation, classed in words: concentrations tested 1.25 μM to 80 μM. As for the experimental part: as §1, §2, §3, §4, §5

Consider `O=C(C=CN1c2ccccc2Sc2ccc(Cl)cc21)Nc1ccccc1` [Compound 17, 3-(2-chloro-10H-phenothiazin-10-yl)-N-phenylpropenamide], for which, in assay [1], the “AC200 T-L site” value worked out at 80 µM and the “Max Fold T-L site” value is on record as 2 fold. The “AC200 Casp-L site” value in assay [2] is above 80 µM. In addition, the “AC200 CT-L site” value in assay [3] was above 80 µM. In assay [4], the “AC200 CT-L/Casp-L/T-L” value came out at 40 µM and the “Max Fold CT-L/Casp-L/T-L” value turned out to be 2.5 fold.
As for `CN(C)C(=O)CCN1c2ccccc2Sc2ccc(Cl)cc21` [Compound 16, 3-(2-chloro-10H-phenothiazin-10-yl)-N,N-dimethylpropanamide], the “AC200 T-L site” value in assay [1] is above 80 µM. In assay [2], the “AC200 Casp-L site” value was above 80 µM. Also, the “AC200 CT-L site” value in assay [3] was above 80 µM. Besides, in assay [4], the “AC200 CT-L/Casp-L/T-L” value was above 80 µM and the “20S proteasome activation, classed in words” value (“20S proteasome activation” for short) is “inactive”.
For the compound `Clc1ccc2c(c1)N(Cc1ccccc1)c1ccccc1S2` [Compound 1, 10-Benzyl-2-chloro-10H-phenothiazine], in assay [1], the “AC200 T-L site” value was found to be 3.1 µM and the “Max Fold T-L site” value amounted to 2 fold. In assay [2], the “AC200 Casp-L site” value was above 80 µM. Moreover, in assay [3], the “AC200 CT-L site” value turned out to be 2.8 µM and the “Max Fold CT-L site” value came to 3 fold. Moreover, in assay [4], the “AC200 CT-L/Casp-L/T-L” value stood at 1.5 µM and the “Max Fold CT-L/Casp-L/T-L” value was determined as 2 fold.
On to `CC(C)(C)OC(=O)c1ccc(CN2c3ccccc3Sc3ccc(Cl)cc32)cc1` [Compound 3, Tert-butyl 4-((2-chloro-10H-phenothiazin-10-yl)methyl)benzoate], for which, in assay [1], the “AC200 T-L site” value was above 80 µM. Further, in assay [2], the “AC200 Casp-L site” value was above 80 µM. The “AC200 CT-L site” value in assay [3] was above 80 µM. For the same compound, in assay [4], the “AC200 CT-L/Casp-L/T-L” value is above 80 µM and the “20S proteasome activation” value is “inactive”.
Regarding `NC(=O)C=CN1c2ccccc2Sc2ccc(Cl)cc21` [Compound 15, 3-(2-chloro-10H-phenothiazin-10-yl)propenamide], in assay [1], the “AC200 T-L site” value was above 80 µM. Besides, the “AC200 Casp-L site” value in assay [2] is above 80 µM. In addition, in assay [3], the “AC200 CT-L site” value is above 80 µM. Also, in assay [4], the “AC200 CT-L/Casp-L/T-L” value is above 80 µM and the “20S proteasome activation” value was “inactive”.
In the case of `COc1cccc(CN2c3ccccc3Sc3ccc(Cl)cc32)c1` [Compound 4, 2-Chloro-10-(3-methoxybenzyl)-10H-phenothiazine], in assay [1], the “AC200 T-L site” value was 5.4 µM and the “Max Fold T-L site” value is 2 fold. In assay [2], the “AC200 Casp-L site” value was 1.3 µM and the “Max Fold Casp-L site” value is 4 fold. In addition, in assay [3], the “AC200 CT-L site” value was above 80 µM. In assay [4], the “AC200 CT-L/Casp-L/T-L” value is 1.5 µM and the “Max Fold CT-L/Casp-L/T-L” value is 4 fold.
For `COC(=O)c1cccc(CN2c3ccccc3Sc3ccc(Cl)cc32)c1` [Compound 5, Methyl 3-((2-chloro-10H-phenothiazin-10-yl)methyl)benzoate], in assay [1], the “AC200 T-L site” value was 1.9 µM and the “Max Fold T-L site” value is recorded as 8 fold. Moreover, in assay [2], the “AC200 Casp-L site” value was found to be 9.7 µM and the “Max Fold Casp-L site” value is 4 fold. In addition, in assay [3], the “AC200 CT-L site” value stood at 2.4 µM and the “Max Fold CT-L site” value stood at 6 fold. Also, in assay [4], the “AC200 CT-L/Casp-L/T-L” value is 2.4 µM and the “Max Fold CT-L/Casp-L/T-L” value stood at 6 fold.
As for `O=[N+]([O-])c1cccc(CN2c3ccccc3Sc3ccc(Cl)cc32)c1` [Compound 7, 2-Chloro-10-(3-nitrobenzyl)-10H-phenothiazine], in assay [1], the “AC200 T-L site” value was determined as 1.6 µM and the “Max Fold T-L site” value came to 8 fold. Besides, in assay [2], the “AC200 Casp-L site” value is 1.2 µM and the “Max Fold Casp-L site” value was found to be 12 fold. Also, in assay [3], the “AC200 CT-L site” value stood at 1.1 µM and the “Max Fold CT-L site” value was 9 fold. Also, in assay [4], the “AC200 CT-L/Casp-L/T-L” value is 1.1 µM and the “Max Fold CT-L/Casp-L/T-L” value came out at 8 fold.
Consider `N#CCCCCN1c2ccccc2Sc2ccc(Cl)cc21` [Compound 10, 5-(2-chloro-10H-phenothiazin-10-yl)pentanenitrile], for which, in assay [1], the “AC200 T-L site” value was above 80 µM. In assay [2], the “AC200 Casp-L site” value was above 80 µM. Further, the “AC200 CT-L site” value in assay [3] is above 80 µM. In assay [4], the “AC200 CT-L/Casp-L/T-L” value is above 80 µM and the “20S proteasome activation” value was “inactive”.
For the compound `NC(=O)CCCCN1c2ccccc2Sc2ccc(Cl)cc21` [Compound 11, 5-(2-Chloro-10H-phenothiazin-10-yl)pentanamide], the “AC200 T-L site” value in assay [1] was above 80 µM. In addition, in assay [2], the “AC200 Casp-L site” value was above 80 µM. For the same compound, the “AC200 CT-L site” value in assay [3] was above 80 µM. Moreover, in assay [4], the “AC200 CT-L/Casp-L/T-L” value is above 80 µM and the “20S proteasome activation” value is “inactive”.
As for `CC(=O)Oc1ccc(CN2c3ccccc3Sc3ccc(Cl)cc32)cc1` [Compound 6, 4-((2-Chloro-10H-phenothiazin-10-yl)methyl)phenyl acetate], the “AC200 T-L site” value in assay [1] is above 80 µM. Besides, the “AC200 Casp-L site” value in assay [2] was above 80 µM. In addition, the “AC200 CT-L site” value in assay [3] was above 80 µM. Moreover, in assay [4], the “AC200 CT-L/Casp-L/T-L” value was above 80 µM and the “20S proteasome activation” value is “inactive”.
For the compound `CN(C(=O)CCN1c2ccccc2Sc2ccc(Cl)cc21)c1ccc(F)cc1` [Compound 18, 3-(2-chloro-10H-phenothiazin-10-yl)-N-(4-fluorophenyl)-N-methylpropanamide], the “Max Fold CT-L/Casp-L/T-L” value in assay [4] was found to be 3 fold.
Regarding `Nc1cccc(CN2c3ccccc3Sc3ccc(Cl)cc32)c1` [Compound 9, 3-((2-Chloro-10H-phenothiazin-10-yl)methyl)aniline], in assay [1], the “AC200 T-L site” value stood at 9.2 µM and the “Max Fold T-L site” value is given as 10 fold. In assay [2], the “AC200 Casp-L site” value came to 3.8 µM and the “Max Fold Casp-L site” value is 10 fold. In addition, in assay [3], the “AC200 CT-L site” value turned out to be 6.5 µM and the “Max Fold CT-L site” value amounted to 9 fold. Further, in assay [4] (20S proteasome activation, compared with electron poor counterpart 7), the “potency relative to compound 7 (times less potent)” value worked out at 3 ×. Besides, in assay [4], the “AC200 CT-L/Casp-L/T-L” value is 3.6 µM and the “Max Fold CT-L/Casp-L/T-L” value stood at 8 fold.

These data come from US20240043394A1, “PROTEASOME ENHANCERS AND USES THEREOF” (Board of Trustees of Michigan State University, priority 2020, published 2024).
